Where two headings read alike, the source gives them in different places.
Key:
N1-BR18 = settings: read-out: KD for the interaction of N1-BR18
H1N1/BR18 virus = settings: virus in egg allantoic fluid, streptavidin plates or Dynabeads
[1] = system: NAs from both IAVs and IBVs
Procedure: Enzyme-linked immunosorbent assays (ELISA). These assays were carried out in duplicates in 384-well NeutrAvidin-coated plates. The wells were washed with 3×80 μL of washing buffer (1× PBS buffer with 0.05% tween-20) and then were incubated with biotinylated glycans (10 μM, 20 μL) at 4° C. for overnight. Then the wells were washed with 3×80 μL of washing buffer and blocked with 60 μL of blocking buffer (1× PBS buffer with 0.1% BSA). The wells were then washed with 3×80 μL of washing buffer, and NA (10 μg/mL, 20 μL) was added to each well. The samples were incubated at 4° C. for 30 minutes. The wells were then washed with 3×80 μL of washing buffer, and HRP-conjugated anti-His or anti-Strep antibodies (0.1 μg/mL or with proper dilution using 1× PBS buffer with 0.1% BSA, 20 μL) were added. The samples were incubated at 4° C. for 30 minutes.

Q: How did the “binding of influenza NAs to immobilized sialoside (BLI), in words” value (shortened to “binding of influenza NAs”) (influenza NAs) turn out when “4-Guanidino-Neu5Acα2-3LacNAcβPorNH-PEG4-Biotin [Compound 10d]” was run?
A: Its value is “significantly stronger binders than other sialosides”.

Q: What about the Kd (N1-BR18) of the same substance?
A: Its Kd is 45.5 nM.

Q: What about the “detection and retention of H1N1/BR18 virions by immobilized ligand” value (H1N1/BR18 virus; listed as 4-Guanidino-Neu5Acα2-3LacNAcβProNH-PEG4-Biotin (10d)) of the same substance?
A: Its value is “effective affinity ligand for detecting and purifying H1N1 virus”.

Q: What about the “detection and retention of H1N1/BR18 virions by immobilized ligand” value (H1N1/BR18 virus; listed as 4-guanidino-Neu5Acα2-3LacNAcβProNH-PEG4-Biotin (10d)) of the same substance?
A: Its value is “efficient in retaining H1N1/BR18 virions”.

Q: With “4N3Neu5Acα2-3LacNAcβProNH-PEG4-Biotin [Compound 11d]” as the substance, how does the “suitability as affinity ligand for immobilizing NAs (ELISA)” value [1] read?
A: Its value is “not suitable affinity ligands”.

Q: And the “binding of influenza NAs” value (influenza NAs)?
A: Its value is “Weak binding of N1-Vic19, N2-Dar21, and the IBV NAs”.

Q: How did the “suitability as affinity ligand for immobilizing NAs (ELISA)” value [1] turn out when “4NAcNeu5Acα2-3LacNAcβProNH-PEG4-Biotin [Compound 12d]” was run?
A: The value was “not suitable affinity ligands”.

Q: And the “binding of influenza NAs” value (influenza NAs)?
A: The value was “weak binding of N1-Vic19 and N2-Dar21”.

Q: Which results are given for “LacNAcβProNH-PEG4-Biotin [LacNAcβProNH-PEG4-Biotin (20), reference compound]”?
A: suitability as affinity ligand for immobilizing NAs (ELISA) [1]: not suitable affinity ligands; detection and retention of H1N1/BR18 virions by immobilized ligand (H1N1/BR18 virus): did not retain influenza virions

— patent US20260242405A1, “N-DERIVATIZED SIALIC ACIDS AND RELATED SIALOSIDES” (THE REGENTS OF THE UNIVERSITY OF CALIFORNIA, priority 2023, published 2026)
